Experimental data published in patent US7935182B2, “Solution for wood preservation” (priority 2004, dated 2011).

Assay: copper leaching from wood impregnated with preservative solution
Format: physicochemical

Compound | Copper leached in % (wood treated with copper based preservative solution) | copper leaching rates compared to diethanolamine or triethanolamine (wood impregnated with preservative solution, ethanolamine used as amine source)
O=S(=O)([O-])[O-].[Cu+2] [Copper (II) sulphate] | 45-55%^ | 
NCCO [ethanolamine] |  | Almost ten times lowest
